Data on two compounds can be found in ChEMBL document CHEMBL5678818, “Discovery of potent SOS1 inhibitors that block RAS activation via disruption of the RAS-SOS1 interaction” (Proc Natl Acad Sci U S A, 2019).

For test [1], the target named is ALK tyrosine kinase receptor (Homo sapiens) (UniProt Q9UM73). Briefly: Inhibition of ALK (unknown origin) assessed as residual activity at 1000 nM by KINOMEscan analysis relative to control.
The test system of test [2] is Receptor-type tyrosine-protein kinase FLT3 (Homo sapiens), P36888 [UNDEFINED MUTATION]. Briefly: Inhibition of FLT3 ITD mutant (unknown origin) assessed as residual activity at 1000 nM by KINOMEscan analysis relative to control.
In test [3] the target is Mast/stem cell growth factor receptor Kit (Homo sapiens) (UniProt P10721). Briefly: Inhibition of autoinhibited KIT (unknown origin) assessed as residual activity at 1000 nM by KINOMEscan analysis relative to control.
Chain of Mast/stem cell growth factor receptor Kit (Homo sapiens) (P10721 whole entry): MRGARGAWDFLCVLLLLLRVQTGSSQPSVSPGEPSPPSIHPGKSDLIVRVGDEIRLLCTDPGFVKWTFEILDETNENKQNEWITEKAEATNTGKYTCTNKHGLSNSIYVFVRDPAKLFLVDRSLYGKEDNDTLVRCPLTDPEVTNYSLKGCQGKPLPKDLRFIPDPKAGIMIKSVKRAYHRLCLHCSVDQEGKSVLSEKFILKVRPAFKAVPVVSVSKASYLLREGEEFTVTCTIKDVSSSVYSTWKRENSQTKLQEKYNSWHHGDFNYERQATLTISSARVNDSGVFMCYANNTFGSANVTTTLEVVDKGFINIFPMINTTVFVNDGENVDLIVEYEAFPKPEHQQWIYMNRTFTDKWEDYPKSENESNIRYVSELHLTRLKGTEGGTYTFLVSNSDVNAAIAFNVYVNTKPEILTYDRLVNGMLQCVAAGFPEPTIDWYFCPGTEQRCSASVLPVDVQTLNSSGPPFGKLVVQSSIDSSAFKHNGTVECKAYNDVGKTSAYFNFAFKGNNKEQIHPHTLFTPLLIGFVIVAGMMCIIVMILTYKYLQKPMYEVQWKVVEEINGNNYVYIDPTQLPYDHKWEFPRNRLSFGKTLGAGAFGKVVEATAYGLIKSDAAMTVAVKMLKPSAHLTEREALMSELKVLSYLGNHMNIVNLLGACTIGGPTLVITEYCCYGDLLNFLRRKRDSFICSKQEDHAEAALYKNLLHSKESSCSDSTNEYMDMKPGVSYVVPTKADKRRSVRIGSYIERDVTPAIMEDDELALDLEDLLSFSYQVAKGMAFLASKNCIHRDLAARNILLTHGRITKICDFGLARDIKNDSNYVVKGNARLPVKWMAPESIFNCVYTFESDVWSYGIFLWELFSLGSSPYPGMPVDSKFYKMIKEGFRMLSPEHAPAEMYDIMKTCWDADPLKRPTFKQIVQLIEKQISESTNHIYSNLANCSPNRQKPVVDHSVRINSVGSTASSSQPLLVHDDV
Test [4] concerns the target T1, Ephrin type-B receptor 2 (Homo sapiens) (UniProt P29323).
T1 sequence (whole entry): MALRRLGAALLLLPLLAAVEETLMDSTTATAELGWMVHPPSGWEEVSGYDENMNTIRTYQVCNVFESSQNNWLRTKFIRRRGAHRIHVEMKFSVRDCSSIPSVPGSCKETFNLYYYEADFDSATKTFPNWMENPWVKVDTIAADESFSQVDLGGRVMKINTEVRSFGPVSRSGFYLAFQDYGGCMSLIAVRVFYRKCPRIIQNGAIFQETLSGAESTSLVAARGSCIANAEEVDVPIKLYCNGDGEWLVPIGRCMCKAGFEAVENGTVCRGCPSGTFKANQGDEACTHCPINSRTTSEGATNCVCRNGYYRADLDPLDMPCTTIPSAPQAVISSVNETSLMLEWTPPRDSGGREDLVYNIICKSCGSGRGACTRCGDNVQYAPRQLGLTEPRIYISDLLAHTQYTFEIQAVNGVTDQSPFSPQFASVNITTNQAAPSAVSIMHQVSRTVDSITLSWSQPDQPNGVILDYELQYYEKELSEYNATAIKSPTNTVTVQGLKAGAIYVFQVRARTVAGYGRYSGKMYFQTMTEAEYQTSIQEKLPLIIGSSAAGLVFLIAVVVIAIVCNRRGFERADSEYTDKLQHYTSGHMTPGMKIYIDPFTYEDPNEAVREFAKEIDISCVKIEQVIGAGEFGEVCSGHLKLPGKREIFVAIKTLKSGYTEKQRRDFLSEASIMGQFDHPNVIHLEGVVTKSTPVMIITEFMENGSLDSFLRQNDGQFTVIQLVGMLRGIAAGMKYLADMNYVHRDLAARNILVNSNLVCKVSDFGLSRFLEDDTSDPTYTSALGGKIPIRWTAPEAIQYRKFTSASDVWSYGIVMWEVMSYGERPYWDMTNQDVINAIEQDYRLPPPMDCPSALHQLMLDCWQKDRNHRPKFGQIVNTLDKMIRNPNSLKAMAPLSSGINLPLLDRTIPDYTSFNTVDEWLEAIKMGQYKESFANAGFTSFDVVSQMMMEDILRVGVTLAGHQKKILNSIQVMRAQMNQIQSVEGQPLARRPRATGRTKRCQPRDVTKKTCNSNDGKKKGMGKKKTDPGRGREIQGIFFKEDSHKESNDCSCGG
Briefly: Inhibition of EPHB2 (unknown origin) assessed as residual activity at 1000 nM by KINOMEscan analysis relative to control.

In test [5] the target is Ribosomal protein S6 kinase beta-1 (Homo sapiens) (UniProt P23443). The experiment in a line: Inhibition of S6K1 (unknown origin) assessed as residual activity at 1000 nM by KINOMEscan analysis relative to control.
Chain of Ribosomal protein S6 kinase beta-1 (Homo sapiens) (P23443 whole entry, looked up): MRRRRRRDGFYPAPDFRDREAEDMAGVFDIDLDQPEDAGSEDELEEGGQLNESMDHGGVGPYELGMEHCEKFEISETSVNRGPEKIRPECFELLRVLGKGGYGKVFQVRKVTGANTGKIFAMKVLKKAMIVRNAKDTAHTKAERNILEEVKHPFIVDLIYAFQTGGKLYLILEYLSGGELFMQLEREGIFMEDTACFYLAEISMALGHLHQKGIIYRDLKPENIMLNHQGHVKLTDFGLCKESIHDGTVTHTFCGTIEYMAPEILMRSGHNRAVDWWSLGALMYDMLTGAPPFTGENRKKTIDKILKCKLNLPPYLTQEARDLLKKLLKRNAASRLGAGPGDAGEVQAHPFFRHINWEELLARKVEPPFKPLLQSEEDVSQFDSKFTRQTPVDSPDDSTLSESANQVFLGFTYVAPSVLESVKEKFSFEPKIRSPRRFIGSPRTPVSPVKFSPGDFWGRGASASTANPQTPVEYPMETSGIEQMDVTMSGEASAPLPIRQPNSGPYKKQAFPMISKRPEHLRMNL
Test [6] concerns the target CDK4/Cyclin D3 (Homo sapiens) (UniProt P11802+P30281). Briefly: Inhibition of CDK4-cyclin D3 (unknown origin) assessed as residual activity at 1000 nM by KINOMEscan analysis relative to control. It is filed as protein-complex assay.
Test [7] addresses T2, Myotonin-protein kinase (Homo sapiens) (UniProt Q09013).
T2 sequence (whole entry): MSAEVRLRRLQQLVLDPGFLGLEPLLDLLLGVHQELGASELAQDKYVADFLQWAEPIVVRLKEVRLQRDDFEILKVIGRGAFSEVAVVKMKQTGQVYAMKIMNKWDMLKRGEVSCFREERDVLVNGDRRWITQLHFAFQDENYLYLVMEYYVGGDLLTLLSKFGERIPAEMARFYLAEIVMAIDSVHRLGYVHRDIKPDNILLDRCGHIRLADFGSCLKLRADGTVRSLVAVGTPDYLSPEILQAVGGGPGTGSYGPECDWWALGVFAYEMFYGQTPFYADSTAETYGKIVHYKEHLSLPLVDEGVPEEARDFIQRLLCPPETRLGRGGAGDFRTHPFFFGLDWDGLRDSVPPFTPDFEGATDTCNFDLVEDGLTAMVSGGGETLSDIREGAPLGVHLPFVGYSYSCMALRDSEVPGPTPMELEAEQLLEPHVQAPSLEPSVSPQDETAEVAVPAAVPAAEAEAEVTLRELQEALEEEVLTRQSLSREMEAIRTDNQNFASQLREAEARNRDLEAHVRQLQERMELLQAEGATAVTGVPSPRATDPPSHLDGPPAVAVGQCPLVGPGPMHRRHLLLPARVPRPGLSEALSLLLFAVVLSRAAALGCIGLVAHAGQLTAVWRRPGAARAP
The experiment in a line: Inhibition of DMPK (unknown origin) assessed as residual activity at 1000 nM by KINOMEscan analysis relative to control.

For test [8], the target named is T3, Phosphatidylinositol 5-phosphate 4-kinase type-2 beta (Homo sapiens) (UniProt P78356).
T3 sequence (whole entry): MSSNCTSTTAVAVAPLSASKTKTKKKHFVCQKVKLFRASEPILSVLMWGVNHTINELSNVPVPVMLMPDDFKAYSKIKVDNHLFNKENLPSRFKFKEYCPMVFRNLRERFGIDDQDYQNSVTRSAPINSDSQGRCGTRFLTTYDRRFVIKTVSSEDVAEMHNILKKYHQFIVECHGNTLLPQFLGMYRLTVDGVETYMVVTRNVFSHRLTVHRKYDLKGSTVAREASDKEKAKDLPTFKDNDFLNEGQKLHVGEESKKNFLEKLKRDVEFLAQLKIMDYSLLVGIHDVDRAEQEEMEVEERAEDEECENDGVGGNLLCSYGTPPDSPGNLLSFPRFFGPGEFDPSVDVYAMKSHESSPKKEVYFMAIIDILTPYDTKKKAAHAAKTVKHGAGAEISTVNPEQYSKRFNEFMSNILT
The experiment in a line: Inhibition of PIP5K2B (unknown origin) assessed as residual activity at 1000 nM by KINOMEscan analysis relative to control.

The target of test [9] is Cyclin-dependent kinase 13 (Homo sapiens) (UniProt Q14004). Briefly: Inhibition of CDC2L5 (unknown origin) assessed as residual activity at 1000 nM by KINOMEscan analysis relative to control.
Chain of Cyclin-dependent kinase 13 (Homo sapiens) (Q14004 whole entry, looked up): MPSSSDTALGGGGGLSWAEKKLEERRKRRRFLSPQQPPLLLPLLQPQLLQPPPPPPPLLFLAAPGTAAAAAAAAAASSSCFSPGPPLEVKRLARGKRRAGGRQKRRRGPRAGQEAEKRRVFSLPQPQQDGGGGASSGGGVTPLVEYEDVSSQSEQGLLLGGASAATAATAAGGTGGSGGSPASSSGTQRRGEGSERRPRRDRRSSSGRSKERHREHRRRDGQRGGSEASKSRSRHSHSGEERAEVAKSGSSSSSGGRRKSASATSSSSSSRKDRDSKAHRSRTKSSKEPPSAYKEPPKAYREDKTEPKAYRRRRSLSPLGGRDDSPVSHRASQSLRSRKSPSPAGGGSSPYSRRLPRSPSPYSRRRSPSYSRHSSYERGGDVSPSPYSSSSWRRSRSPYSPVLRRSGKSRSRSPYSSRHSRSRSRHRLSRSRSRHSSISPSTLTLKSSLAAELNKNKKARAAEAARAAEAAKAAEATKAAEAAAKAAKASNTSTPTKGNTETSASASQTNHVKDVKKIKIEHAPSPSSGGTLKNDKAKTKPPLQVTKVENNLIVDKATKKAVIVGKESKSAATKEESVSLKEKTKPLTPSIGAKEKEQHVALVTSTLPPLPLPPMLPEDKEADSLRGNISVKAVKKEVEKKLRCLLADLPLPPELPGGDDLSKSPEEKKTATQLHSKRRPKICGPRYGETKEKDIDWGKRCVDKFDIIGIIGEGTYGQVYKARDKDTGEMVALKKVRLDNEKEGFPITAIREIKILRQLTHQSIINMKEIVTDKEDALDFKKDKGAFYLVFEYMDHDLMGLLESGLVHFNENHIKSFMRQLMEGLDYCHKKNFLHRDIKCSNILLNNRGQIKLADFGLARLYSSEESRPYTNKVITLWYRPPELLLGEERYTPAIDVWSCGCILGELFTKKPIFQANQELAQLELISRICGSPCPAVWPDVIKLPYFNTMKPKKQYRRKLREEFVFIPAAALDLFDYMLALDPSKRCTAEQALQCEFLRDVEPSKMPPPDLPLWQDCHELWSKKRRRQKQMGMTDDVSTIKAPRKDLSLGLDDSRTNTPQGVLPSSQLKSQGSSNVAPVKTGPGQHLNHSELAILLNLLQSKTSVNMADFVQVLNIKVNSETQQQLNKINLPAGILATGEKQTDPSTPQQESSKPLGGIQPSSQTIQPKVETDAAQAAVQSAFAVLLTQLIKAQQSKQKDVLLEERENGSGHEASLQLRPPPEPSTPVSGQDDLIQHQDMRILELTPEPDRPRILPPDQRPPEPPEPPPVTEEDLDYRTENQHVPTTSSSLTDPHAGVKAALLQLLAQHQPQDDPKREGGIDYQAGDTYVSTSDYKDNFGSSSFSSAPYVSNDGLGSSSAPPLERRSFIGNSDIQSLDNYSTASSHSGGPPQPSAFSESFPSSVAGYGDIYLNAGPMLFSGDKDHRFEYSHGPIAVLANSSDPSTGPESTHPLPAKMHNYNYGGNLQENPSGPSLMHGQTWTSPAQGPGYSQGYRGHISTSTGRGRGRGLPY
The test system of test [10] is Receptor-type tyrosine-protein kinase FLT3 (Homo sapiens), P36888 [K663Q]. The experiment in a line: Inhibition of FLT3 K663Q mutant (unknown origin) assessed as residual activity at 1000 nM by KINOMEscan analysis relative to control.
The target of test [11] is Activin receptor type-2B (Homo sapiens) (UniProt Q13705). The experiment in a line: Inhibition of ACVR2B (unknown origin) assessed as residual activity at 1000 nM by KINOMEscan analysis relative to control.
Chain of Activin receptor type-2B (Homo sapiens) (Q13705 whole entry): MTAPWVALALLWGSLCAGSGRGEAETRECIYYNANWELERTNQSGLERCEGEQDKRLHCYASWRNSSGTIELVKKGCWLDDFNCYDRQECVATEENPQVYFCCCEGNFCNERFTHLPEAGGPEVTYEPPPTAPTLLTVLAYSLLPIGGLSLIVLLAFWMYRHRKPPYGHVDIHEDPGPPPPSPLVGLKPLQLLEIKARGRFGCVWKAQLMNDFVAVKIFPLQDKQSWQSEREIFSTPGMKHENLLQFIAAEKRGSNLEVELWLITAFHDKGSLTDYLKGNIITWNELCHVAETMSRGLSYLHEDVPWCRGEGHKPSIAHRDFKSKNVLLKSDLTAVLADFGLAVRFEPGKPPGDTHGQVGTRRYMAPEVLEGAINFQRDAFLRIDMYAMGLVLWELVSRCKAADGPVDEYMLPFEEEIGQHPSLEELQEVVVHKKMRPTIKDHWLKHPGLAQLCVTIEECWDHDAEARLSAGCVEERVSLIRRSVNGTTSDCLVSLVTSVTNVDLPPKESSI

Chain of ALK tyrosine kinase receptor (Homo sapiens) (Q9UM73 19-1620 limits assumed): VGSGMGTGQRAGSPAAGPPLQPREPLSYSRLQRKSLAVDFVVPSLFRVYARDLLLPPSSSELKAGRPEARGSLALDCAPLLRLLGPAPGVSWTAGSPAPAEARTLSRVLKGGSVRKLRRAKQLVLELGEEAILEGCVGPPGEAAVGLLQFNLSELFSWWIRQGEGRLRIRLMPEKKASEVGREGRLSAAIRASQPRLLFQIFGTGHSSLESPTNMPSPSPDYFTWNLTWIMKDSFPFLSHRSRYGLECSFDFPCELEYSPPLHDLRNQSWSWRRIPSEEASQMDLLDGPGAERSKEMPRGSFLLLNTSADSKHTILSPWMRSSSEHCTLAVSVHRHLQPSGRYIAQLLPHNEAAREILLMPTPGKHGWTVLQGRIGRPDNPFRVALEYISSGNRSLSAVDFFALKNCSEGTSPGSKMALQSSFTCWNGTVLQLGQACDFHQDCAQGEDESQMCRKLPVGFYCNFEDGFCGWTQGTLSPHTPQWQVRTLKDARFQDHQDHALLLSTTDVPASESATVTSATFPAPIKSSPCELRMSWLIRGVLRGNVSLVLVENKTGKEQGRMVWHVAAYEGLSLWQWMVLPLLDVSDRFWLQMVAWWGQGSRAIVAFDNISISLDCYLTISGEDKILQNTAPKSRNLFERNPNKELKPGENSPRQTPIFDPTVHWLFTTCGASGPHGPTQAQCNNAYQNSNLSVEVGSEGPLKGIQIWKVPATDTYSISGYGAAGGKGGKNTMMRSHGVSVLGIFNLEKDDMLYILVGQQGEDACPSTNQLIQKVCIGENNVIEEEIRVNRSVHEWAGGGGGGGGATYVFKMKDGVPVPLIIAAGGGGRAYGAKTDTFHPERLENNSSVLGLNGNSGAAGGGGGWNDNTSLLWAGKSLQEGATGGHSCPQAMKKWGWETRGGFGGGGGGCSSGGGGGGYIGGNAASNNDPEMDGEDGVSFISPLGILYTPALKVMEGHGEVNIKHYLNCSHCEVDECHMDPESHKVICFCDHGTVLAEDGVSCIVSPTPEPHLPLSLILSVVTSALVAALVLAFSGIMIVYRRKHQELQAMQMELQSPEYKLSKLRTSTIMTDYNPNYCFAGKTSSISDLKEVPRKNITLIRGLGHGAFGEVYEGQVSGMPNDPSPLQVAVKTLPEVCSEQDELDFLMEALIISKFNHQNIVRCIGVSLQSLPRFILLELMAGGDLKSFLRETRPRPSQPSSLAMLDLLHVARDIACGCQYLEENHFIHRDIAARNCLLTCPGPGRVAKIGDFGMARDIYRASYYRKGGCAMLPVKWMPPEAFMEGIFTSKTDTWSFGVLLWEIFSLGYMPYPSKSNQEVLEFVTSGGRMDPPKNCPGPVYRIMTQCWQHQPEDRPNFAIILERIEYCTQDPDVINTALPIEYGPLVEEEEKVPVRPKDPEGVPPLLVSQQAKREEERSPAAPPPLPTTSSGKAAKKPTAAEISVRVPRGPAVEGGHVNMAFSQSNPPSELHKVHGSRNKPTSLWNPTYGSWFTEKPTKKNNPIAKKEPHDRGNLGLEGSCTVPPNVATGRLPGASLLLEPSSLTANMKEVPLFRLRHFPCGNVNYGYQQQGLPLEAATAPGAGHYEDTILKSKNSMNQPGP

Turning to `COc1cc2ncnc(N[C@H](C)c3cccc4ccccc34)c2cc1OC`, the Activity in test [1] is 85%; in [2] it was 96%; in test [3], 93%; in test [4], 94%; in test [5] it was 91%; in [6] it was 100%. In addition, the Activity was determined as 100% in test [7]; 100% in test [8]; 97% in [9]; 96% in test [10]; 100% in [11].
`COc1cc2nc(C)nc(N[C@H](C)c3cccc(-c4cn[nH]c4)c3)c2cc1OC`: the Activity was 100% in [1]; 58% in test [2]; 100% in test [3]; 98% in test [4]; 78% in test [5]; 100% in test [6]. Also, the Activity in test [7] stood at 87%; in [8], 89%; in test [9] it was 87%; in test [10], 90%; in test [11], 91%.
